According to patent US11771703B2, “Targeted epigenetic therapy against distal regulatory element of TGFβ2 expression” (The Johns Hopkins University, priority 2017, dated 2023):
Entries after “also recorded” stand apart in the source; their conditions may differ. Numbered stars: 1 amine (or outer) side, 2 acyl side, 3 side chain; on linkers, the order of the positions; unused ones are H or OH. Bridge positions count the residues as written; N and C are the ends. Square brackets hold non-standard residues; d marks the D form. Peptide text beside a SMILES is read from it. I, II: the chains in the order shown. Actinocin(9to1) = Cc1c2oc3c(C)ccc(C(=O)[*:1])c3nc-2c(C(=O)[*:2])c(N)c1=O; NMeV = CN[C@H](C(=O)O)C(C)C; Sar = CNCC(=O)O

Columns and labels:
[1] = tested on: TGFβ2 mRNA expression in SSc fibroblasts; test: TGFβ2 mRNA expression in primary dermal control and SSc fibroblasts, RT-qPCR; format: cell-based, human; conditions: for TGFβ2 mRNA expression in SSc fibroblasts after drug removal: 72 hours treatment, then drug removal; for TGFβ2 mRNA expression in SSc fibroblasts under treatment: SSc fibroblasts vs controls, serum-deprived, SGC-CBP30 72 hours, actinomycin D 12 hours; for TGFβ2 mRNA expression upon stimulation with cytokine/ligand: exogenous stimulation of fibroblasts
Procedure: (§1) To test this hypothesis, it was first validated whether primary dermal SSc fibroblast lines established from dermal biopsies maintained stable gene expression differences at baseline. Six dermal fibroblasts lines from SSc patients and five dermal fibroblast lines from healthy controls were cultured in serum-deprived conditions (DMEM+1% FCS) for 48 hours, followed by mRNA isolation. RNAseq analysis indicated significant transcriptomic differences (FDR<0.05) with heightened expression of extracellular matrix genes (P<1E-9) in SSc fibroblasts (FIG. 1A). By RT-qPCR, elevated expression of pro-fibrotic genes, such as COL1A1 and SERPINH1 (FIG. 1B), were independently validated. TGFβ expression, the dominant pro-fibrotic cytokine, was also assessed. […] This indicated transcriptional upregulation of TGFβ2 in SSc fibroblasts.
Since heightened TGFβ2 signaling drives collagen expression in SSc cells, the possible mechanisms of heightened TGFβ2 ligand expression in SSc fibroblasts, was investigated. First, it was determined if SSc fibroblasts were actively transcribing TGFβ2 mRNA by treating SSc or control fibroblasts with the transcriptional inhibitor actinomycin D for 12 hours, followed by mRNA isolation and RT-qPCR.
Second, it was determined if autocrine TGFβ2 signaling drives the steady-state differences in TGFβ2 mRNA expression in SSc fibroblasts. Cells were treated with isotype control or αTGFβ2ab in the presence or absence of saturating levels of exogenous TGFβ2 ligand (10 ng/mL), followed by mRNA isolation and RT-qPCR.
Third, pharmacological acetyltransferase inhibitors were used to support the role of enhancers in TGFβ2 expression and to identify therapeutic strategies for SSc. Bromodomain inhibitor SGC-CBP30 specifically suppresses the acetyltransferase activity of P300. […] This indicated some form of epigenetic memory that re-activates the TGFβ2 enhancer in SSc fibroblasts.

SSc fibroblasts = test: RNA-seq transcriptome of vehicle or JQ1-treated control or SSc fibroblasts; format: cell-based, human
Text: The negative enantiomer of JQ1 was used as a negative control. […] In FIGS. 4G and 4H, BRD4 inhibition with JQ1 normalizes TGFβ2 protein and collagen mRNA expression in SSc fibroblasts. In FIGS. 4I, 4J and 4K, JQ1 treatment normalizes chromatin accessibility, H3K27ac and BRD4 occupancy at the TGFB2 enhancer in SSc fibroblasts. […] FIG. 4M: Heatmap of unsupervised hierarchical clustering of differentially expressed genes between vehicle or JQ1-treated control or SSc fibroblasts by RNA-seq (N=2). Rows represent differentially expressed genes between vehicle-treated control and SSc fibroblasts (FDR<0.05). Differences in expression of these genes are mitigated in SSc fibroblasts upon JQ1 treatment. […] Blue and red bars represent control and SSc fibroblasts, respectively. Ncontrol=5 and NSSc=6. Lower and upper margins of each bar indicate 25th and 75th percentiles, respectively; the internal line indicates the mean and whiskers indicate the range. Black points represent individual samples. All mRNA levels were normalized to GAPDH mRNA levels, respectively. […]
To test this hypothesis, it was first validated whether primary dermal SSc fibroblast lines established from dermal biopsies maintained stable gene expression differences at baseline. […] TGFβ expression, the dominant pro-fibrotic cytokine, was also assessed. […]

[2] = tested on: TGFB2 enhancer (Enhancer 4514); test: ChIP-qPCR occupancy (P300, BRD4, H3K27ac) at the TGFB2 enhancer; format: cell-based, human
Text: (§2) The negative enantiomer of JQ1 was used as a negative control. […] In FIGS. 4G and 4H, BRD4 inhibition with JQ1 normalizes TGFβ2 protein and collagen mRNA expression in SSc fibroblasts. In FIGS. 4I, 4J and 4K, JQ1 treatment normalizes chromatin accessibility, H3K27ac and BRD4 occupancy at the TGFB2 enhancer in SSc fibroblasts. […] FIG. 4M: Heatmap of unsupervised hierarchical clustering of differentially expressed genes between vehicle or JQ1-treated control or SSc fibroblasts by RNA-seq (N=2). Rows represent differentially expressed genes between vehicle-treated control and SSc fibroblasts (FDR<0.05). Differences in expression of these genes are mitigated in SSc fibroblasts upon JQ1 treatment. […] Blue and red bars represent control and SSc fibroblasts, respectively. Ncontrol=5 and NSSc=6. Lower and upper margins of each bar indicate 25th and 75th percentiles, respectively; the internal line indicates the mean and whiskers indicate the range. Black points represent individual samples. All mRNA levels were normalized to GAPDH mRNA levels, respectively. All experiments other than RNA-seq and ATAC-qPCR were repeated at least twice with similar results.
Detecting activation status of TGFβ2 enhancer: To determine the activation status of the enhancer for TGFβ2 expression, chromatin immunoprecipitation was performed, followed by quantitative PCR (CHIP-qPCR), using primers that were uniquely designed based on ATAC-seq data for primary fibroblasts and published ENCODE data. The current method of detecting the activation status of TGFβ2 enhancer was implemented on primary human fibroblast cell lines established from dermal biopsies of normal controls or Scleroderma patients. However, the current method is applicable to adherent or non-adherent cells from tissue or blood of subjects (e.g., human patients).
To determine if Enhancer 4514 was biologically functional, a three-pronged approach was taken. First, active and functional enhancers are strongly associated with H3K27ac histone modifications with heightened occupancy of P300 (histone acetyltransferase) (Cato E et al. (2013) Cell Molecular Cell Reviews. 49:825-837). Thus, chromatin immunoprecipitation was used followed by qPCR (ChIP-qPCR) to determine the level of H3K27ac and P300 at Enhancer 4514 in SSc and control fibroblasts under baseline serum-deprived conditions. […] Furthermore, moderately higher levels of phosphorylated SMAD2 occupancy was found at enhancer 4514 in SSc.

TGFβ2 protein = TGFβ2 protein expression in SSc fibroblasts (western blot); format: cell-based, human
Procedure: FIG. 1A is a heatmap. Primary control and SSc fibroblasts were cultured ex vivo under serum deprived conditions (DMEM+1% FCS). Unsupervised hierarchical clustering was performed on genes with significant mRNA expression differences (FDR<0.05) assessed by RNA-seq on primary control and SSc fibroblasts. Top ranked GO term result for each gene cluster is indicated on the left of the heatmap. FIG. 1B are plots showing mRNA transcript levels measured by RT-qPCR. FIG. 1C: Transcript differences were correlated with protein expression by western blot under same culture conditions. FIG. 1D: Effects of TGFβ2 ligand stimulation on collagen expression was assessed in SSc fibroblasts. FIG. 1E: Effects of autocrine TGFβ2 signaling on mRNA expression of collagen was assessed through treatment of control and SSc fibroblasts with anti-TGFβ2 neutralizing antibody, followed by RT-qPCR. FIG. 1F: Effects of autocrine TGFβ2 stimulation on mRNA expression of TGFβ2 was assessed through treatment of control and SSc fibroblasts with combinations of anti-TGFBβ2 neutralizing antibody and exogenous TGFβ2 ligand ([…]). […]

[3] = tested on: collagen expression in SSc fibroblasts; test: Collagen / fibrotic synthetic repertoire (FSR) expression in SSc fibroblasts, RT-qPCR; format: cell-based, human
Procedure: as §1
This provided evidence that autocrine TGFβ2 signaling drives high collagen expression in SSc. To test this, the activity of ALK5, a TGFβ receptor kinase required by all TGFβ isoforms, was inhibited. ALK5 inhibition normalized collagen expression in SSc fibroblasts (FIG. 1E, P<0.05).

TGFB2 enhancer = conditions: Chem-seq database GSE44098, GSE43743; cited from earlier work
[4] = tested on: TGFB2 enhancer (Enhancer 4514); test: Chromatin accessibility at the TGFB2 enhancer (ATAC); format: cell-based, human; conditions: SSc fibroblasts under treatment
Text: as §2
To test this hypothesis, an RNA-seq and Assay for Transposase-Accessible Chromatin Sequencing (ATAC-seq) were performed on three primary control fibroblast lines and three primary SSc fibroblast lines^7. […]

TGFβ1 mRNA expression = TGFβ1 mRNA expression in fibroblasts, RT-qPCR; format: cell-based, human; conditions: fibroblasts under treatment
Scleroderma cells = test: Cell toxicity of CBP/P300 inhibitor treatment
TGFβ3 mRNA expression = TGFβ3 mRNA expression in fibroblasts, RT-qPCR; format: cell-based, human; conditions: fibroblasts under treatment
[5] = SSc fibroblasts under treatment
[6] = SSc fibroblasts, 72 hours treatment then removal

## CC(C)(C)c1ccc(S(=O)(=O)/C=C/C#N)cc1 [BAY 11-7085]
[1]
  TGFβ2 mRNA expression in SSc fibroblasts after drug removal: sustained normalization
  TGFβ2 mRNA expression in SSc fibroblasts under treatment: robustly suppressed
[1]; listed as BAY 11-70585
  TGFβ2 mRNA expression in SSc fibroblasts after drug removal: sustained repression
[1]; co-treatment with TNFα
  TNFα-induced TGFB2 mRNA expression under co-treatment: prevents TGFB2 induction

## Cc1sc2c(c1C)C(c1ccc(Cl)cc1)=N[C@@H](CC(=O)OC(C)(C)C)c1nnc(C)n1-2 [JQ1]
SSc fibroblasts; N=2
  transcriptomic differences between control and SSc fibroblasts (RNA-seq): significantly mitigated transcriptomic differences
SSc fibroblasts; PC1, 67% of total variance
  clustering in principal component analysis of RNA-seq: cluster together with control samples in PC1; also recorded: cluster with control fibroblasts
[2]; [5]
  BRD4 occupancy at the TGFB2 enhancer: complete normalization; also recorded: normalizes
  H3K27ac at the TGFB2 enhancer: complete normalization; also recorded: normalizes
[2]; [6]
  BRD4 occupancy at the TGFB2 enhancer after drug removal: continued normalization; also recorded: sustained normalization
  H3K27ac at the TGFB2 enhancer after drug removal: continued normalization; also recorded: sustained normalization
  P300 occupancy at the TGFB2 enhancer after drug removal: continued normalization; also recorded: sustained normalization
TGFβ2 protein
  TGFβ2 protein levels in SSc fibroblasts: rapidly normalized; also recorded: normalizes
[3]; e.g. COL1A1, SERPINH1
  fibrotic synthetic repertoire (FSR) in SSc cells: normalization
[3]; mRNA, RT-qPCR
  collagen expression in SSc fibroblasts: rapidly normalized; also recorded: normalizes
[1]
  TGFβ2 mRNA expression in SSc fibroblasts after drug removal: sustained repression; also recorded: sustained suppression; also recorded: maintained even after drug removal
  TGFβ2 mRNA expression in SSc fibroblasts under treatment: rapidly normalized; also recorded: decreased
[1]; co-stimulation with TGFβ2 ligand (10 ng/mL)
  TGFβ2 mRNA induction by exogenous TGFβ2 ligand under co-treatment: failed to induce TGFβ2 mRNA expression
[1]; single 48 hr regiment
  TGFβ2 mRNA expression in SSc fibroblasts after a single 48 hr regiment: permanently normalizes
TGFB2 enhancer
  binding at the TGFB2 enhancer (Chem-seq): specifically bound to the TGFB2 enhancer; also recorded: specific binding
[4]
  chromatin accessibility at the TGFB2 enhancer: complete normalization; also recorded: normalizes

## COc1ccc(CCc2nc3cc(-c4c(C)noc4C)ccc3n2C[C@H](C)N2CCOCC2)cc1Cl [SGC-CBP30]
TGFβ1 mRNA expression
  TGFβ1 mRNA expression: not TGFβ1 or TGFβ3
Scleroderma cells
  cell toxicity: minimal cell toxicity
TGFβ3 mRNA expression
  TGFβ3 mRNA expression: not TGFβ1 or TGFβ3
[2]; SSc fibroblasts, 72 hours
  P300 occupancy of the TGFB2 enhancer under treatment: suppressed
[2]; [6]
  P300 occupancy at the TGFB2 enhancer after drug removal: re-establish high P300 occupancy; also recorded: rebounded to steady-state levels
[1]
  TGFβ2 mRNA expression in SSc fibroblasts after drug removal: rebounded to steady-state levels
  TGFβ2 mRNA expression in SSc fibroblasts under treatment: normalized TGFβ2 expression in SSc fibroblasts to levels comparable to that of controls; also recorded: suppressed; also recorded: decrease TGFβ2 expression in Scleroderma cells to levels comparable to that of control
[1]; listed as SGC-CBP300
  TGFβ2 mRNA expression in SSc fibroblasts under treatment: specifically decrease
[1]; after 72 hours of treatment and drug removal
  TGFβ2 mRNA level in SSc cells compared to control after drug removal: 3 fold

## Cc1c2oc3c(C)ccc(C(=O)N[C@@H]4C(=O)N[C@H](C(C)C)C(=O)N5CCC[C@H]5C(=O)N(C)CC(=O)N(C)[C@@H](C(C)C)C(=O)O[C@@H]4C)c3nc-2c(C(=O)N[C@@H]2C(=O)N[C@H](C(C)C)C(=O)N3CCC[C@H]3C(=O)N(C)CC(=O)N(C)[C@@H](C(C)C)C(=O)O[C@@H]2C)c(N)c1=O [actinomycin D] (I: T[dV]P[Sar][NMeV] / II: T[dV]P[Sar][NMeV]; ester I:1-I:C, II:1-II:C; linker I:N-II:N via Actinocin(9to1))
TGFβ1 mRNA expression
  TGFβ1 mRNA expression: did not significantly alter
TGFβ3 mRNA expression
  TGFβ3 mRNA expression: did not significantly alter
[1]
  TGFβ2 mRNA expression in SSc fibroblasts under treatment: completely normalized

## TNFα
[1]
  TGFβ2 mRNA expression upon stimulation with cytokine/ligand: increased TGFβ2 expression; also recorded: induces TGFB2 mRNA expression

B1: TGFβ2 ligand: exogenous TGFβ2 ligand (10 ng/mL) (protein, UniProt P61812 303-414, looked up)
Transforming growth factor …: ALDAAYCFRNVQDNCCLRPLYIDFKRDLGWKWIHEPKGYNANFCAGACPYLWSSDTQHSRVLSLYNTINPEASASPCCVSQDLEPLTILYYIGKTPKIEQLSNMIVKSCKCS
[1]
  TGFβ2 mRNA expression upon stimulation with cytokine/ligand: pronounced further increase in TGFβ2 mRNA
